Results taken from ChEMBL document CHEMBL1139236, “Introduction of non-natural amino acid residues into the substrate-specific P1 position of trypsin inhibitor SFTI-1 yields potent chymotrypsin and cathepsin G inhibitors” (Bioorg Med Chem, 2009).
Bridge positions count the residues as written; N and C are the ends. Square brackets hold non-standard residues; d marks the D form. Peptide text beside a SMILES is read from it. Phe(4-NO2) = N[C@@H](Cc1ccc([N+](=O)[O-])cc1)C(=O)O; Phe(4-guanidino) = N=C(N)Nc1ccc(C[C@H](N)C(=O)O)cc1; Phe(4-NH2) = Nc1ccc(C[C@H](N)C(=O)O)cc1; Phe(4-F) = N[C@@H](Cc1ccc(F)cc1)C(=O)O; Phe(4-Me) = Cc1ccc(C[C@H](N)C(=O)O)cc1; 4Pal = N[C@@H](Cc1ccncc1)C(=O)O

How the values were obtained:
[1] = biological target: Chymotrypsinogen A (Bos taurus) (UniProt P00766); experiment: Inhibition of bovine alpha-chymotrypsin assessed as association equilibrium constant
[2] = biological target: T1, Cathepsin G (Homo sapiens) (UniProt P08311); experiment: Inhibition of cathepsin G assessed as association equilibrium constant relative to [Phe5]SFTI-1
T1 sequence (whole entry): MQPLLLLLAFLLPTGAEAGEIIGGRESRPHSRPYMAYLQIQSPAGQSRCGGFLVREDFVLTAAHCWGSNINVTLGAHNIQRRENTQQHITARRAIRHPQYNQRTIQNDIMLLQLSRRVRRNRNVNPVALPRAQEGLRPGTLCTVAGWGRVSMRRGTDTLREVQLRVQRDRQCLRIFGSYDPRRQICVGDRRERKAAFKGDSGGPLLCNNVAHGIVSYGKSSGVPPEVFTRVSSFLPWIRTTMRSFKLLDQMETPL

[3] = biological target: T1, Cathepsin G (Homo sapiens); experiment: Inhibition of cathepsin G assessed as association equilibrium constant
Cathepsin G = biological target: T2, Cathepsin G (Homo sapiens, UniProt P08311); experiment: Inhibition of cathepsin G
T2 sequence (P08311 whole entry): T1 sequence (whole entry)

[4] = biological target: Chymotrypsinogen A (Bos taurus) (UniProt P00766); experiment: Inhibition of bovine alpha-chymotrypsin assessed as association equilibrium constant relative to [Phe5]SFTI-1
Serum = experiment: Stability in human serum at 2 mg/mL up to 24 hrs; format: ADME, cell-free

CC[C@H](C)[C@@H]1NC(=O)[C@@H]2CCCN2C(=O)[C@@H]2CCCN2C(=O)[C@H]([C@@H](C)CC)NC(=O)[C@H](CO)NC(=O)[C@H](CCCCN)NC(=O)[C@H]([C@@H](C)O)NC(=O)[C@@H]2CSSC[C@H](NC1=O)C(=O)N[C@@H](Cc1ccccc1)C(=O)N1CCC[C@H]1C(=O)N[C@@H](CC(=O)O)C(=O)NCC(=O)N[C@@H](CCCNC(=N)N)C(=O)N2
Ka [1]: 5.2 ×10⁶ /M
Ratio [2]: 1.54
Ka [3]: 5.7 ×10⁶ /M
Ki (Cathepsin G): 150 pM

CC[C@H](C)[C@@H]1NC(=O)[C@@H]2CCCN2C(=O)[C@@H]2CCCN2C(=O)[C@H]([C@@H](C)CC)NC(=O)[C@H](CO)NC(=O)[C@H](CCCCN)NC(=O)[C@H]([C@@H](C)O)NC(=O)[C@@H](NC(=O)[C@H](CCCNC(=N)N)NC(=O)CN)CSSC[C@@H](C(=O)N[C@@H](Cc2ccccc2)C(=O)N2CCC[C@H]2C(=O)N[C@@H](CC(=O)O)C(=O)O)NC1=O
Ka [1]: 5 ×10⁶ /M

CC[C@H](C)[C@@H]1NC(=O)[C@@H]2CCCN2C(=O)[C@@H]2CCCN2C(=O)[C@H]([C@@H](C)CC)NC(=O)[C@H](CO)NC(=O)[C@H](Cc2ccccc2)NC(=O)[C@H]([C@@H](C)O)NC(=O)[C@@H](NC(=O)[C@H](CCCNC(=N)N)NC(=O)CN)CSSC[C@@H](C(=O)N[C@@H](Cc2ccccc2)C(=O)N2CCC[C@H]2C(=O)N[C@@H](CC(=O)O)C(=O)O)NC1=O (H-GRCTFSIPPICFPD-OH; disulfide 3-11)
Ka [1]: 2 ×10⁹ /M
Ka [3]: 3.7 ×10⁶ /M

CC[C@H](C)[C@@H]1NC(=O)[C@@H]2CCCN2C(=O)[C@@H]2CCCN2C(=O)[C@H]([C@@H](C)CC)NC(=O)[C@H](CO)NC(=O)[C@H](Cc2ccc(O)cc2)NC(=O)[C@H]([C@@H](C)O)NC(=O)[C@@H](NC(=O)[C@H](CCCNC(=N)N)NC(=O)CN)CSSC[C@@H](C(=O)N[C@@H](Cc2ccccc2)C(=O)N2CCC[C@H]2C(=O)N[C@@H](CC(=O)O)C(=O)O)NC1=O (H-GRCTYSIPPICFPD-OH; disulfide 3-11)
Ka [1]: 1.9 ×10¹⁰ /M
Ratio [4]: 9.5
Ka [3]: < 1 ×10⁵ /M

CC[C@H](C)[C@@H]1NC(=O)[C@@H]2CCCN2C(=O)[C@@H]2CCCN2C(=O)[C@H]([C@@H](C)CC)NC(=O)[C@H](CO)NC(=O)[C@H](Cc2ccncc2)NC(=O)[C@H]([C@@H](C)O)NC(=O)[C@@H](NC(=O)[C@H](CCCNC(=N)N)NC(=O)CN)CSSC[C@@H](C(=O)N[C@@H](Cc2ccccc2)C(=O)N2CCC[C@H]2C(=O)N[C@@H](CC(=O)O)C(=O)O)NC1=O (H-GRCT[4Pal]SIPPICFPD-OH; disulfide 3-11)
Ka [1]: 1.1 ×10¹⁰ /M
Ratio [4]: 5.5
Ka [3]: < 1 ×10⁵ /M

CC[C@H](C)[C@@H]1NC(=O)[C@@H]2CCCN2C(=O)[C@@H]2CCCN2C(=O)[C@H]([C@@H](C)CC)NC(=O)[C@H](CO)NC(=O)[C@H](Cc2ccc(F)cc2)NC(=O)[C@H]([C@@H](C)O)NC(=O)[C@@H](NC(=O)[C@H](CCCNC(=N)N)NC(=O)CN)CSSC[C@@H](C(=O)N[C@@H](Cc2ccccc2)C(=O)N2CCC[C@H]2C(=O)N[C@@H](CC(=O)O)C(=O)O)NC1=O (H-GRCT[Phe(4-F)]SIPPICFPD-OH; disulfide 3-11)
Ka [1]: 3 ×10¹⁰ /M
Ratio [4]: 15
Ratio [2]: 1.02
Ka [3]: 3.8 ×10⁶ /M

CC[C@H](C)[C@@H]1NC(=O)[C@@H]2CCCN2C(=O)[C@@H]2CCCN2C(=O)[C@H]([C@@H](C)CC)NC(=O)[C@H](CO)NC(=O)[C@H](Cc2ccc(C)cc2)NC(=O)[C@H]([C@@H](C)O)NC(=O)[C@@H](NC(=O)[C@H](CCCNC(=N)N)NC(=O)CN)CSSC[C@@H](C(=O)N[C@@H](Cc2ccccc2)C(=O)N2CCC[C@H]2C(=O)N[C@@H](CC(=O)O)C(=O)O)NC1=O (H-GRCT[Phe(4-Me)]SIPPICFPD-OH; disulfide 3-11)
Ka [1]: 2.5 ×10¹⁰ /M
Ratio [4]: 12.5
Ratio [2]: 0.76
Ka [3]: 2.8 ×10⁶ /M

CC[C@H](C)[C@@H]1NC(=O)[C@@H]2CCCN2C(=O)[C@@H]2CCCN2C(=O)[C@H]([C@@H](C)CC)NC(=O)[C@H](CO)NC(=O)[C@H](Cc2ccc(N)cc2)NC(=O)[C@H]([C@@H](C)O)NC(=O)[C@@H](NC(=O)[C@H](CCCNC(=N)N)NC(=O)CN)CSSC[C@@H](C(=O)N[C@@H](Cc2ccccc2)C(=O)N2CCC[C@H]2C(=O)N[C@@H](CC(=O)O)C(=O)O)NC1=O (H-GRCT[Phe(4-NH2)]SIPPICFPD-OH; disulfide 3-11)
Ka [1]: 1.9 ×10¹⁰ /M
Ratio [4]: 9.5
Ratio [2]: 0.97
Ka [3]: 3.6 ×10⁶ /M

CC[C@H](C)[C@@H]1NC(=O)[C@@H]2CCCN2C(=O)[C@@H]2CCCN2C(=O)[C@H]([C@@H](C)CC)NC(=O)[C@H](CO)NC(=O)[C@H](Cc2ccc([N+](=O)[O-])cc2)NC(=O)[C@H]([C@@H](C)O)NC(=O)[C@@H](NC(=O)[C@H](CCCNC(=N)N)NC(=O)CN)CSSC[C@@H](C(=O)N[C@@H](Cc2ccccc2)C(=O)N2CCC[C@H]2C(=O)N[C@@H](CC(=O)O)C(=O)O)NC1=O (H-GRCT[Phe(4-NO2)]SIPPICFPD-OH; disulfide 3-11)
Ka [1]: 2.6 ×10¹⁰ /M
Ratio [4]: 13
Ka [3]: < 1 ×10⁵ /M

CC[C@H](C)[C@@H]1NC(=O)[C@@H]2CCCN2C(=O)[C@@H]2CCCN2C(=O)[C@H]([C@@H](C)CC)NC(=O)[C@H](CO)NC(=O)[C@H](Cc2ccc(NC(=N)N)cc2)NC(=O)[C@H]([C@@H](C)O)NC(=O)[C@@H](NC(=O)[C@H](CCCNC(=N)N)NC(=O)CN)CSSC[C@@H](C(=O)N[C@@H](Cc2ccccc2)C(=O)N2CCC[C@H]2C(=O)N[C@@H](CC(=O)O)C(=O)O)NC1=O (H-GRCT[Phe(4-guanidino)]SIPPICFPD-OH; disulfide 3-11)
Ka [1]: 1.8 ×10⁸ /M
Ratio [4]: 0.09
Ratio [2]: 2.19
Ka [3]: 8.1 ×10⁷ /M
Stability (Serum): Stable
